Columns and labels:
aged chicken juice [1] = assay: Comparative dyes dropped onto aged chicken juice on paper towel; conditions: aged chicken juice on SCOTT paper towel
[2] = Reichardt's dye and TMB coated towel exposed to dilute bleach; conditions: towel coated with mixture of Reichardt's dye and TMB
budgie feces suspension = assay: N-methyl merocyanine coated towel exposed to budgerigar feces suspension; conditions: tap water control
Description: Budgerigar feces was collected from a caged pet budgie, and shaken in approximately 10 milliliters of Atlanta city domestic tap water.

[3] = system: aged urine (approximately 1x10^5 CFU/milliliters); assay: N-methyl merocyanine coated towel exposed to aged female human urine; conditions: aged urine filtered through 0.2-micron filter
aged chicken juice [4] = assay: N-docosyl merocyanine dye on cotton fabric spotted with aged chicken juice

CCN(CC)c1ccc2c(-c3ccc(S(=O)(=O)[O-])cc3S(=O)(=O)[O-])c3ccc(=[N+](CC)CC)cc-3oc2c1.[Na+] [Cl Acid Red 52]
Color change on dropping dye onto aged chicken juice (aged chicken juice [1]): No color changes were observed

O=C([O-])C1=NN(c2ccc(S(=O)(=O)[O-])cc2)C(=O)C1N=Nc1ccc(S(=O)(=O)[O-])cc1.[Na+].[Na+].[Na+] (centres unmarked) [Acid Yellow 23]
Color change on dropping dye onto aged chicken juice (aged chicken juice [1]): No color changes were observed

Cc1cc(-c2cc(C)c(N)c(C)c2)cc(C)c1N [TMB]
Color response to dilute bleach solution [2]: turning orange/yellow color

CC(=O)Nc1ccc(/N=N/c2c(N)ccc3cc(S(=O)(=O)[O-])cc(O)c23)c(S(=O)(=O)[O-])c1.[Na+].[Na+] [Acid Red 37]
Color change on dropping dye onto aged chicken juice (aged chicken juice [1]): No color changes were observed

COc1cc(/C=C/c2cc[n+](C)cc2)ccc1[O-] [N-methyl merocyanine dye]
Color change of coated towel (budgie feces suspension): remained orange | Color change of coated towel [3]: did not cause a color change

Cc1ccc(Nc2ccc(Nc3ccc(C)cc3S(=O)(=O)[O-])c3c2C(=O)c2c(O)ccc(O)c2C3=O)c(S(=O)(=O)[O-])c1.[Na+].[Na+] [Cl Acid Green 41]
Color change on dropping dye onto aged chicken juice (aged chicken juice [1]): No color changes were observed

O=C1/C(=C2\Nc3ccc(S(=O)(=O)[O-])cc3C2=O)Nc2ccc(S(=O)(=O)[O-])cc21.[Na+].[Na+] [Cl Acid Blue 74]
Color change on dropping dye onto aged chicken juice (aged chicken juice [1]): No color changes were observed

Cc1ccc(Nc2ccc(Nc3ccc(C)cc3S(=O)(=O)[O-])c3c2C(=O)c2ccccc2C3=O)c(S(=O)(=O)[O-])c1.[Na+].[Na+] [Cl Acid Green 25]
Color change on dropping dye onto aged chicken juice (aged chicken juice [1]): No color changes were observed

CCCCCCCCCCCCCCCCCCCCCC[n+]1ccc(C=Cc2ccc(O)cc2)cc1.[Br-]
Color change on spotting aged chicken juice (aged chicken juice [4]; orange-yellow dye spots on cotton fabric): color change to very pale yellow | Color change on spotting aged chicken juice (aged chicken juice [4]; pinkish-orange areas (dye + NaOH soln.)): pinkish-orange to very pale yellow

From patent US7300770B2, “Detection of microbe contamination on elastomeric articles” (Kimberly-Clark Worldwide, Inc., priority 2004, dated 2007)
